According to patent US20120107888A1, “MODULATION OF FERMENTATION PRODUCTS THROUGH VITAMIN SUPPLEMENTATION” (Qteros, Inc., priority 2011, published 2012):

Test system: C. phytofermentans
Details: basal medium; ethanol production from pretreated corn stover
Procedure: To examine the effect of individual nutrients (e.g., vitamins or amino acids) on the growth and/or ethanol production of C. phytofermentans, complex nutrients such as yeast extract were reduced to a minimal concentration that will permit sub-optimal growth. Each specific nutrient is added in a titration of increasing amount until a “saturation” of effect is observed.
Corn Stover, Mono and Dibasic Potassium Phosphate and Sodium Chloride were sterilized by autoclaving and the remaining components were added aseptically to each fermentation flask. DBY and CSP were separately prepared each as 100 g/L stocks and autoclaved.
All solutions and materials were degassed prior to use. Prior to inoculation, all flasks receive a sterile addition of commercial cellulases (from Novozymes) consisting of (per 100 mL medium): 0.25 mL Cat# NS50013 and 0.83 mL of diluted (1/10 in water) Cat# NS22002. […]
Following inoculation, flasks were placed in shaking fermenters at 35° C. with agitation at 175 rpm and sampled daily. […] Samples were analyzed for sugars (cellobiose, xylose, arabinose, and glucose) and fermentation products (formic, lactic, and acetic acids and ethanol) using HPLC.

O=C(O)c1cccnc1 [nicotinic acid, Nicotinic acid]
nicotinic acid supplementation above which a saturation effect is seen: > 10 mg/L
